Laboratory results as given in patent US20170050961A1, “IMIDAZO[1,2-A]PYRIDINES AS SOLUBLE GUANYLATE CYCLASE STIMULATORS FOR THE TREATMENT OF CARDIOVASCULAR DISEASES” (BAYER PHARMA AKTIENGESELLSCHAFT, priority 2014, published 2017).

Target: T1, recombinant guanylate cyclase reporter cell line (Rattus norvegicus, UniProt P19686+P20595)
T1 construct: expressed in transfected cells
T1 sequence (P19686 1-690): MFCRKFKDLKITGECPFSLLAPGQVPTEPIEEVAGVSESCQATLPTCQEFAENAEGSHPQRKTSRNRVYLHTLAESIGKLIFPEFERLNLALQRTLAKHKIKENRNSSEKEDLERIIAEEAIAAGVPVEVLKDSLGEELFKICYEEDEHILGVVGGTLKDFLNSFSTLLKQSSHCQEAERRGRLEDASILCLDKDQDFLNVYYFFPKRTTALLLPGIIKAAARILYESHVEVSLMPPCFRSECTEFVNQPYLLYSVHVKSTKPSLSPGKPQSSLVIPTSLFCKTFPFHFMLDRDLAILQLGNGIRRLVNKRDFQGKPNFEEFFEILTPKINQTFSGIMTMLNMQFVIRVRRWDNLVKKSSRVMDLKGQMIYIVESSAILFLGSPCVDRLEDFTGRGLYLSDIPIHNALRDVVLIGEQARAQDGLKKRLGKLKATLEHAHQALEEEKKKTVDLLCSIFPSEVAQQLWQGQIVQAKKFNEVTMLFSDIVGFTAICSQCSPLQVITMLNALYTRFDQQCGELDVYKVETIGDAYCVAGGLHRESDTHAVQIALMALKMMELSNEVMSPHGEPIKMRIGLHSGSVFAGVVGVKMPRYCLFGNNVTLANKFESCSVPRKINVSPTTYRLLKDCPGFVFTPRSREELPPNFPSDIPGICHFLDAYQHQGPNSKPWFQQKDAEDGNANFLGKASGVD
T1 sequence (P20595 1-619): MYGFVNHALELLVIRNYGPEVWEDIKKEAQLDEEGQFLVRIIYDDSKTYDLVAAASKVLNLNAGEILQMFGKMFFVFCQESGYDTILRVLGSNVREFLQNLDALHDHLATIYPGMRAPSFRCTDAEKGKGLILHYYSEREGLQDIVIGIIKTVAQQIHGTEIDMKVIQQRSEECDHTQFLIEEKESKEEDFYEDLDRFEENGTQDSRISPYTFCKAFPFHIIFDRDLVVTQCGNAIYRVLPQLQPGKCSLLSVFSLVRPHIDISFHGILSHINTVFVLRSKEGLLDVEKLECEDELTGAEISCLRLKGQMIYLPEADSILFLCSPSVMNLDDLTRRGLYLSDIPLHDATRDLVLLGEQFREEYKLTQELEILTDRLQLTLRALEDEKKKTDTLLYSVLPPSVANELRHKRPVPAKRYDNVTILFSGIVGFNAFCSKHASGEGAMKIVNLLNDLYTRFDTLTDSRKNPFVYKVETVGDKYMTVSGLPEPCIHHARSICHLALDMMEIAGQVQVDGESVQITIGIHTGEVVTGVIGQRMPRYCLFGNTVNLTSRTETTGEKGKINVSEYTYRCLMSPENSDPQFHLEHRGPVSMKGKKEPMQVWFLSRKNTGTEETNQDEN
Assay: Effect on a recombinant guanylate cyclase reporter cell line
Type: cell-based
Details: MEC=minimum effective concentration; in some cases as mean values for individual determinations
Method: B-2. Effect on a Recombinant Guanylate Cyclase Reporter Cell Line
The cellular activity of the compounds of the invention is determined using a recombinant guanylate cyclase reporter cell line, as described in F. Wunder et al., Anal Biochem. 339, 104-112 (2005).
Representative MEC values (MEC=minimum effective concentration) for the compounds of the invention are shown in the table below (in some cases as mean values for individual determinations): […]

Row | MEC | Compound
1 | 0.3 µM | Cc1cc(OCc2ncccc2F)c2nc(C)c(C(=O)NCC(C)(N)CCC(F)(F)F)n2c1 (single isomer, unassigned; enantiomer b) [Example 9, ent-N-(2-Amino-5,5,5-trifluoro-2-methylpentyl)-8-[(3-fluoropyridin-2-yl)methoxy]-2,6-dimethylimidazo[1,2-a]pyridine-3-carboxamide (enantiomer B)]
2 | 0.1 µM | CCC(C)(N)CNC(=O)c1c(Cl)nc2c(OCc3c(F)cccc3F)cc(C)cn12 (single isomer, unassigned; enantiomer b) [Example 22, ent-N-(2-Amino-2-methylbutyl)-2-chloro-8-[(2,6-difluorobenzyl)oxy]-6-methylimidazo[1,2-a]pyridine-3-carboxamide (enantiomer B)]
3 | 10 µM | CCC(C)(N)CNC(=O)c1c(C)nc2c(OCc3c(F)cccc3F)cc(-c3cnn(C)c3)cn12 (racemic) [Example 6, rac-N-(2-Amino-2-methylbutyl)-8-[(2,6-difluorobenzyl)oxy]-2-methyl-6-(1-methyl-1H-pyrazol-4-yl)imidazo[1,2-a]pyridine-3-carboxamide]
4 | 10 µM | CCC(C)(N)CNC(=O)c1c(C)nc2c(OCc3c(F)cccc3F)cc(-c3cccnc3)cn12 (racemic) [Example 1, rac-N-(2-Amino-2-methylbutyl)-8-[(2,6-difluorobenzyl)oxy]-2-methyl-6-(pyridin-3-yl)imidazo[1,2-a]pyridine-3-carboxamide]
5 | 0.3 µM | CCCC(C)(N)CNC(=O)c1c(Cl)nc2c(OCc3c(F)cccc3F)cc(C)cn12 (single isomer, unassigned; enantiomer b) [Example 25, ent-N-(2-Amino-2-methylpentyl)-2-chloro-8-[(2,6-difluorobenzyl)oxy]-6-methylimidazo[1,2-a]pyridine-3-carboxamide (enantiomer B)]
6 | 0.07 µM | CCC(C)(N)CNC(=O)c1c(Cl)nc2c(OCc3c(F)cccc3F)cc(C)cn12 (racemic) [Example 20]
7 | 0.1 µM | CCCC(C)(N)CNC(=O)c1c(Cl)nc2c(OCc3c(F)cccc3F)cc(C)cn12 (racemic) [Example 23, rac-N-(2-Amino-2-methylpentyl)-2-chloro-8-[(2,6-difluorobenzyl)oxy]-6-methylmidazo[1,2-a]pyridine-3-carboxamide]
8 | 10 µM | CCC(C)(N)CNC(=O)c1c(COC)nc2c(OCc3c(F)cccc3F)cc(C)cn12.Cl (racemic) [Example 8, rac-N-(2-Amino-2-methylbutyl)-8-[(2,6-difluorobenzyl)oxy]-2-(methoxymethyl)-6-methylimidazo[1,2-a]pyridine-3-carboxamide hydrochloride]
9 | 3.0 µM | CCC(C)(N)CNC(=O)c1c(C)nc2c(OCc3c(F)cccc3F)cc(-n3cccn3)cn12.Cl (racemic) [Example 3, rac-N-(2-Amino-2-methylbutyl)-8-[(2,6-difluorobenzyl)oxy]-2-methyl-6-(1H-pyrazol-1-yl)imidazo[1,2-a]pyridine-3-carboxamide hydrochloride]
10 | 3.0 µM | Cc1cc(OCc2c(F)cccc2F)c2nc(C3CC(F)(F)C3)c(C(=O)NCC(C)(N)CCC(F)(F)F)n2c1 (single isomer, unassigned; enantiomer b) [Example 17, ent-N-(2-Amino-5,5,5-trifluoro-2-methylpentyl)-8-[(2,6-difluorobenzyl)oxy]-2-(3,3-difluorocyclobutyl)-6-methylimidazo[1,2-a]pyridine-3-carboxamide (enantiomer B)]
11 | 0.55 µM | CCCC[C@H](CO)NC(=O)c1c(OC)nc2c(OCc3c(F)cccc3F)cc(C)cn12 [Example 29, 8-[(2,6-Difluorobenzyl)oxy]-N-[(2R)-1-hydroxyhexan-2-yl]-2-methoxy-6-methylmidazo[1,2-a]pyridine-3-carboxamide]
12 | 2.0 µM | Cc1cc(OCc2c(F)cccc2F)c2nc(C(C)C)c(C(=O)NCC(C)(N)CCC(F)(F)F)n2c1 (single isomer, unassigned; enantiomer b) [Example 18, ent-N-(2-Amino-5,5,5-trifluoro-2-methylpentyl)-8-[(2,6-difluorobenzyl)oxy]-2-isopropyl-6-methylimidazo[1,2-a]pyridine-3-carboxamide (enantiomer B)]
13 | 3.0 µM | CCC(C)(N)CNC(=O)c1c(C)nc2c(OCc3c(F)cccc3F)cc(OC(F)F)cn12 (racemic) [Example 5, rac-N-(2-Amino-2-methylbutyl)-8-[(2,6-difluorobenzyl)oxy]-6-(difluoromethoxy)-2-methylimidazo[1,2-a]pyridine-3-carboxamide]
14 | 0.3 µM | Cc1nc2c(OCc3ncccc3F)cc(Cl)cn2c1C(=O)NCC(C)(N)CCC(F)(F)F (single isomer, unassigned; enantiomer b) [Example 10, ent-N-(2-Amino-5,5,5-trifluoro-2-methylpentyl)-6-chloro-8-[(3-fluoropyridin-2-yl)methoxy]-2-methylimidazo[1,2-a]pyridine-3-carboxamide (enantiomer B)]
15 | 0.03 µM | CCC(C)(N)CNC(=O)c1c(Cl)nc2c(OCc3c(F)cccc3F)cc(C)cn12 (single isomer, unassigned; enantiomer a) [Example 21, ent-N-(2-Amino-2-methylbutyl)-2-chloro-8-[(2,6-difluorobenzyl)oxy]-6-methylimidazo[1,2-a]pyridine-3-carboxamide (enantiomer A)]
16 | 1.0 µM | Cc1nc2c(OCc3ncccc3F)cccn2c1C(=O)NCC(C)(N)CCC(F)(F)F (single isomer, unassigned; enantiomer b) [Example 11, ent-N-(2-Amino-5,5,5-trifluoro-2-methylpentyl)-8-[(3-fluoropyridin-2-yl)methoxy]-2-methylimidazo[1,2-a]pyridine-3-carboxamide (enantiomer B)]

Row | Compound | MEC
17 | CCC(C)(N)CNC(=O)c1c(C)nc2c(OCc3c(F)cccc3F)cc(C3CC3)cn12.Cl (racemic) [Example 2, rac-N-(2-Amino-2-methylbutyl)-6-cyclopropyl-8-[(2,6-difluorobenzyl)oxy]-2-methylimidazo[1,2-a]pyridine-3-carboxamide hydrochloride] | 1.0 µM
18 | Cc1cc(OCc2c(F)cccc2F)c2nc(C)c(C(=O)NCC(C)(N)CCC[Si](C)(C)C)n2c1 (single isomer, unassigned; enantiomer b) [Example 16, ent-N-[2-Amino-2-methyl-5-(trimethylsilyl)pentyl]-8-[(2,6-difluorobenzyl)oxy]-2,6-dimethylimidazo[1,2-a]pyridine-3-carboxamide (enantiomer B)] | 1.0 µM
19 | Cc1cc(OCc2c(F)cccc2F)c2nc(C)c(C(=O)NCC(C)(N)CC[Si](C)(C)C)n2c1 (single isomer, unassigned; enantiomer a) [Example 13, ent-N-[2-Amino-2-methyl-4-(trimethylsilyl)butyl]-8-[(2,6-difluorobenzyl)oxy]-2,6-dimethylimidazo[1,2-a]pyridine-3-carboxamide (enantiomer A)] | 0.3 µM
20 | Cc1cc(OCc2c(F)cccc2F)c2nc(C)c(C(=O)NCC(C)(N)CC[Si](C)(C)C)n2c1 (single isomer, unassigned; enantiomer b) [Example 14, ent-N-[2-Amino-2-methyl-4-(trimethylsilyl)butyl]-8-[(2,6-difluorobenzyl)oxy]-2,6-dimethylimidazo[1,2-a]pyridine-3-carboxamide (enantiomer B)] | 0.2 µM
21 | Cc1cc(OCc2c(F)cccc2F)c2nc(C)c(C(=O)NCC(C)(N)CCC[Si](C)(C)C)n2c1 (single isomer, unassigned; enantiomer a) [Example 15, ent-N-[2-Amino-2-methyl-5-(trimethylsilyl)pentyl]-8-[(2,6-difluorobenzyl)oxy]-2,6-dimethylimidazo[1,2-a]pyridine-3-carboxamide (enantiomer A)] | 0.3 µM
